Source: ChEMBL document CHEMBL4393659, “Insights into the chemistry and therapeutic potential of furanones: A versatile pharmacophore” (Eur J Med Chem, 2019)
pIC50: −log10 of the molar value. In brackets after ≈: the same amount, converted by molar mass.

Tests used:
Candida albicans = test: Antifungal activity against Candida albicans assessed as reduction in fungal cell viability incubated for 48 hrs by broth microdilution method; assay type: functional
Staphylococcus aureus [1] = test: Antibacterial activity against Staphylococcus aureus ATCC 29737 assessed as reduction in bacterial cell viability incubated for 24 hrs by broth microdilution method; assay type: functional; conditions: ATCC 29737, 24 h
Rhizopus arrhizus = test: Antifungal activity against Rhizopus oryzae assessed as reduction in fungal cell viability incubated for 48 hrs by broth microdilution method; assay type: functional
Aspergillus niger = test: Antifungal activity against Aspergillus niger assessed as reduction in fungal cell viability incubated for 48 hrs by broth microdilution method; assay type: functional
Pseudomonas aeruginosa = test: Antibacterial activity against Pseudomonas aeruginosa NCLM-2035 assessed as reduction in bacterial cell viability incubated for 24 hrs by broth microdilution method; assay type: functional; conditions: NCLM-2035, 24 h
Escherichia coli [2] = test: Antibacterial activity against Escherichia coli ATCC 8739 assessed as reduction in bacterial cell viability incubated for 24 hrs by broth microdilution method; assay type: functional; conditions: ATCC 8739, 24 h
[3] = target: GABA-A receptor; anion channel; test: Displacement of [35S]TBPS from GABAA (unknown origin) incubated for 90 mins by scintillation counting method; assay type: protein-complex assay, Homo sapiens
Mus musculus [4] = test: Anticonvulsant activity in ip dosed CF-1 mouse assessed as protection against PTZ-induced seizures measured after 30 mins […]; assay type: functional
Liver = test: Antioxidant activity in Wistar rat liver microsomes assessed as inhibition of AAPH-induced MDA production at 100 mM incubated for 15 mins; assay type: functional; conditions: Microsome
Escherichia coli [5] = test: Antibacterial activity against Escherichia coli assessed as inhibition zone incubated for 24 hrs by disk diffusion method relative to control; assay type: functional
Aspergillus fumigatus = test: Antifungal activity against Aspergillus fumigatus assessed as reduction in fungal cell viability measured after 24 and 48 hrs by broth microdilution method; assay type: functional
Rattus norvegicus [6] = organism: Rattus norvegicus; test: Antiarthritic activity in adjuvant-induced Sprague-Dawley rat; assay type: functional
Rattus norvegicus [7] = test: Antiinflammatory activity in Sprague-Dawley rat assessed as inhibition of carrageenan-induced paw edema at 3 mg/kg , po relative to control; assay type: functional
Rattus norvegicus [8] = test: Antiinflammatory activity in Wistar rat assessed as inhibition of carrageenan-induced edema measured upto 4 hrs; assay type: functional
Plasmodium falciparum = test: Antimalarial activity against Plasmodium falciparum infected in human blood assessed as reduction in cell viability incubated for 72 hrs by Giemsa stain based assay; assay type: functional
Escherichia coli [9] = test: Antibacterial activity against Escherichia coli; assay type: functional
Staphylococcus aureus [10] = test: Antibacterial activity against Staphylococcus aureus; assay type: functional
Mus musculus [11] = test: Anticonvulsant activity in ip dosed mouse assessed as reduction in PTZ-induced seizures pretreated for 30 mins followed by PTZ addition; assay type: functional
[12] = Acute toxicity in Swiss albino mouse assessed as reduction in mortality of animal at 200 to 800 mg/kg , ip observed for 8 days; assay type: organism-based; conditions: in vivo
[13] = target: GABA-A receptor; alpha-1/beta-2/gamma-2 (Homo sapiens) (UniProt P14867+P47870+P18507); test: Positive allosteric modulation of recombinant GABAA alpha1beta2gamma2 (unknown origin) expressed in Xenopus laevis oocytes assessed as increase GABA-stimulated current amplitude at 200 uM by electrophysiological two-electrode voltage clamp method; assay type: cell-based
Salmonella typhimurium = test: Inhibition of biofilm formation in Salmonella enterica subsp. enterica serovar Typhimurium 14028S incubated for 48 hrs by crystal violet staining based assay; assay type: functional, organism-based
[14] = Ulcerogenicity in Wistar rat assessed as gastric lesions by measuring ulcer severity index at 60 mg/kg , po measured after 17 hrs relative to ibuprofen; assay type: toxicity, organism-based; conditions: in vivo
Rattus norvegicus [15] = test: Antiinflammatory activity in po dosed rat; assay type: functional
[16] = Ulcerogenicity in Sprague-Dawley rat assessed as gastric lesions at 30 mg/kg , po measured after 4 hrs; assay type: toxicity, organism-based; conditions: in vivo
Rattus norvegicus [17] = test: Antiinflammatory activity in Sprague-Dawley rat assessed as inhibition of carrageenan-induced paw edema at 3 mg/kg , po incubated for 1 hr followed by carrageenan addition and measured after 4 hrs relative to control; assay type: functional
[18] = target: Prostaglandin G/H synthase 2 (Homo sapiens, UniProt P35354); test: Inhibition of recombinant human COX2 expressed in baculovirus infected Sf9 cells
Prostaglandin G/H synthase 2, sequence (P35354 whole entry): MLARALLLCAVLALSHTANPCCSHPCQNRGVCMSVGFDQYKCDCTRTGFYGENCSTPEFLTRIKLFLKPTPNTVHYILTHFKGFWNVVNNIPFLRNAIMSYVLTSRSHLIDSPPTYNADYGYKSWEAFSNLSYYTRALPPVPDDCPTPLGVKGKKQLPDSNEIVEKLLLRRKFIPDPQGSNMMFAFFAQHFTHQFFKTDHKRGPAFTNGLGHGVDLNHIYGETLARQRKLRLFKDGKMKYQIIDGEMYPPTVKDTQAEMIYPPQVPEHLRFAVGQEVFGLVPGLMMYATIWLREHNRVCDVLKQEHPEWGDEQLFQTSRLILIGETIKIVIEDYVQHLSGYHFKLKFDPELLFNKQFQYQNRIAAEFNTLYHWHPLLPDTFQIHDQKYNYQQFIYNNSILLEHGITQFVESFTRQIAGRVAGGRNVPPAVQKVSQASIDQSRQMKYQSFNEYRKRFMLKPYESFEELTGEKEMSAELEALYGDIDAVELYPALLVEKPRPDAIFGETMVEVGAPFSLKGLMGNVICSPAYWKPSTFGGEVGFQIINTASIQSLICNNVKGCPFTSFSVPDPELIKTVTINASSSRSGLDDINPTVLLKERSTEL

## O=C1OC(c2ccc(Cl)cc2)=C/C1=C\c1ccc(F)cc1
Candida albicans
  MIC: 12.5 to 50 mg/L (≈ 41.6 to 166 µM)
Staphylococcus aureus [1]
  MIC: 12.5 to 50 mg/L (≈ 41.6 to 166 µM)
Rhizopus arrhizus
  MIC: 12.5 to 50 mg/L (≈ 41.6 to 166 µM)
Aspergillus niger
  MIC: 12.5 to 50 mg/L (≈ 41.6 to 166 µM)
Pseudomonas aeruginosa
  MIC: 12.5 to 50 mg/L (≈ 41.6 to 166 µM)
Escherichia coli [2]
  MIC: 12.5 to 50 mg/L (≈ 41.6 to 166 µM)

## CC1(CC(F)(F)F)COC(=O)C1 (configuration not stated)
[3]
  pIC50: 5.10
Mus musculus [4]
  CD50: 3 mg/kg

## CCC1(C)CC(C)(C(F)(F)F)OC1=O (configuration not stated)
[3]
  pIC50: 3.65
Mus musculus [4]
  CD50: 47 mg/kg

## Cc1c(C)c2c(c(C)c1O)CCC(C)(CC1OC[C@@H]([C@H]3OC(=O)C(O)=C3O)O1)O2 (some centres not stated)
Liver
  inhibition: 100%

## CC1COc2c(N3CCN(C)CC3)c(F)cc3c(=O)c(C(=O)O)cn1c23 (configuration not stated) [OFLOXACIN]
Escherichia coli [5]
  inhibition zone (IZ): 24 mm

## CC(C)(C)C(=O)OCC1C=C(c2ccc(Cl)c(Cl)c2)C(=O)O1 (configuration not stated)
Aspergillus fumigatus
  MIC: 1.34 mg/L (≈ 3.9 µM)

## CC1(C)OC(c2ccc(S(C)(=O)=O)cc2)=C(c2cccc(C(F)(F)F)c2)C1=O
Rattus norvegicus [6]
  ED50: 0.06 mg/kg/day
Rattus norvegicus [7]
  inhibition in vivo at 3 mg/kg: 32%

## Cc1ccc2cc(/C=C3\C=C(c4ccc(-c5ccccc5)cc4)OC3=O)c(Cl)nc2c1
Rattus norvegicus [8]
  inhibition (INH): 56 - 63%

## COc1cccc2cc(/C=C3/CC(c4ccc(Cl)cc4)OC3=O)c(Cl)nc12 (configuration not stated)
Plasmodium falciparum
  MIC: 0.5 to 0.72 mg/L (≈ 1.25 to 1.8 µM)

## COC(=O)C(Cl)C1(Cl)OC(c2ccc(Cl)cc2)=C(Cl)C1=O (configuration not stated)
Escherichia coli [9]
  MIC: 62.5 mg/L (≈ 169 µM)
Staphylococcus aureus [10]
  MIC: 15.6 mg/L (≈ 42.2 µM)

## O=C1OC(c2ccc(-c3ccccc3)cc2)=C/C1=C\c1cc2ccc(Cl)cc2nc1Cl
Rattus norvegicus [8]
  inhibition (INH): 56 - 63%

## CCC1(CC)CC(CCNC(=O)c2ccccc2)OC1=O (configuration not stated)
Mus musculus [11]
  ED50: 89.9 to 285 mg/kg

## COc1cccc2cc(/C=C3/CC(c4ccc(Cl)c(Cl)c4)OC3=O)c(Cl)nc12 (configuration not stated)
Plasmodium falciparum
  MIC: 0.5 to 0.72 mg/L (≈ 1.15 to 1.66 µM)

## O=C1O[C@H]([C@@H](O)CO)C(O)=C1O [ASCORBIC ACID]
[12]
  LD50 at 192 h: > 800 mg/kg

## C=CCOC(=O)NC1COC(=O)C1(CCC)CCC (configuration not stated)
[13]
  Activity: 420%

## CCC1=C(Br)/C(=C/Br)OC1=O
Salmonella typhimurium
  pIC50: 4.30

## O=C1C=C(c2ccc(Br)cc2)O/C1=N\C12CC3CC(CC(C3)C1)C2
Escherichia coli [9]
  MIC: 31 mg/L (≈ 80.3 µM)

## CC(C)Cc1ccc(C2=C/C(=C\c3ccc(F)cc3)C(=O)O2)cc1
[14]
  UI: 0.1

## COc1ccc(C2=C/C(=C/c3ccc(F)cc3)C(=O)O2)cc1
Escherichia coli [5]
  inhibition zone (IZ): 14 mm

## COc1ccc(C2=C/C(=C/c3ccc(N(C)C)cc3)C(=O)O2)cc1
Escherichia coli [5]
  inhibition zone (IZ): 16 mm

## CCCC1(CCC)C(=O)OCC1NC(=O)OCC (configuration not stated)
[13]
  Activity: 426%

## O=C1C(Br)=C(c2ccccc2)O/C1=N\C12CC3CC(CC(C3)C1)C2
Escherichia coli [9]
  MIC: 15.6 mg/L (≈ 40.4 µM)

## O=C1OC(c2ccc(Cl)cc2)=C/C1=C\c1ccc(Br)cc1
Candida albicans
  MIC: 12.5 to 50 mg/L (≈ 34.6 to 138 µM)
Staphylococcus aureus [1]
  MIC: 12.5 to 50 mg/L (≈ 34.6 to 138 µM)
Rhizopus arrhizus
  MIC: 12.5 to 50 mg/L (≈ 34.6 to 138 µM)
Aspergillus niger
  MIC: 12.5 to 50 mg/L (≈ 34.6 to 138 µM)
Pseudomonas aeruginosa
  MIC: 12.5 to 50 mg/L (≈ 34.6 to 138 µM)
Escherichia coli [2]
  MIC: 12.5 to 50 mg/L (≈ 34.6 to 138 µM)

## O=C1OC(c2ccc(-c3ccccc3)cc2)=C/C1=C\c1cc2ccc([N+](=O)[O-])cc2nc1Cl
Rattus norvegicus [8]
  inhibition (INH): 56 - 63%

## CC1(O)OC(=O)C(c2ccccc2)=C1c1ccc(S(C)(=O)=O)cc1 (configuration not stated)
Rattus norvegicus [15]
  ED50: 1.5 mg/kg

## CC1(C)OC(c2ccc(S(C)(=O)=O)cc2)=C(c2cc(F)cc(F)c2)C1=O
[16]
  UI: 1.8
Rattus norvegicus [6]
  ED50: 0.03 mg/kg/day
Rattus norvegicus [7]
  inhibition in vivo at 3 mg/kg: 34%
Rattus norvegicus [17]
  inhibition in vivo at 3 mg/kg: 34%

## CCC1(CC)CC(CCOC(=O)c2ccc(C)cc2)OC1=O (configuration not stated)
Mus musculus [11]
  ED50: 89.9 to 285 mg/kg

## COc1cccc2cc(/C=C3/CC(c4ccc(C)cc4C)OC3=O)c(Cl)nc12 (configuration not stated)
Plasmodium falciparum
  MIC: 0.5 to 0.72 mg/L (≈ 1.27 to 1.83 µM)

## O=C1OC(c2ccc(-c3ccccc3)cc2)=C/C1=C\c1cc2ccccc2nc1Cl
Rattus norvegicus [8]
  inhibition (INH): 56 - 63%

## CS(=O)(=O)c1ccc(C2=C3c4ccccc4CCC3OC2=O)cc1 (configuration not stated)
[18]
  pIC50: 6.22 to 6.30
